Experimental findings from patent US11834663B2, “Fibrotic treatment” (Monash University, priority 2015, dated 2023) are described below.

This test concerns human cardiac fibroblasts (HCFs). Briefly: Human cardiac fibroblasts stimulated with Ang II: α-SMA and collagen expression. The test is classed as cell-based. Particulars: HCFs + Ang II 0.1 μM, HFI-419 0.01 to 1 μM, approx. 72 hours; FIG. 26. How it is done: Commercially available human cardiac fibroblasts (HCF, Catalog #6300, Sciencell, CA, USA) were grown in T75 flask maintained in an incubator at 37° C., 5% CO2. Complete media composition: M199 media (#11150-059, life technologies)+10% FBS (#10437-028, life technologies)+1% Fibroblast Growth Supplement-2 (#2382, ScienCell)+1% penicillin/streptomycin 10,000 U/ml antibiotics (#15140-122, Life Technologies). Fresh complete media was replenished every alternate day until culture reached 70% confluence in which media is replenished daily until it reached approximately 90% confluence in order to passage/subculture. To subculture, media was discarded and culture was rinsed with warm PBS. After which, culture was detached using warm 0.05% Trypsin+EDTA with gentle swirling of flask to make sure cells were not adherent to surface of flask. Trypsin was then neutralized with complete media and suspension was then transferred into a new falcon tube and centrifuged at 1000 rpm for 5 minutes. […]
Once treatment is complete, cells were washed with warm PBS and detached using Accutase (A6964, Sigma), with 5 minutes incubation at 37° C. […] The supernatant (˜20 ul) was transferred to a new tube and protein concentrations were measured using Biorad Lowry protein assay. Protein quantification of respective markers were performed via standard western blot analysis. […]

As to `CCOC(=O)C1=C(NC(C)=O)Oc2cc(O)ccc2C1c1cccnc1` (centres unmarked) [HFI-419], the “collagen production in human cardiac fibroblasts” value is given as “dose-dependently decreased” and the “myofibroblast expression (α-SMA) in human cardiac fibroblasts” value is “dose-dependently decreased”.
